Patent US20170290774A1, “NEUROKININ-1 RECEPTOR ANTAGONIST COMPOSITION FOR TREATMENT OF DISEASES AND CONDITIONS OF THE RESPIRATORY TRACT” (PLUS VITECH, S.L., priority 2014, published 2017)

Test: Tissue concentration of aprepitant by HPLC after oral or inhaled administration to rabbits
Type: in vivo, New Zealand albino rabbits
Conditions: for concentration at 7 days: New Zealand White, rabbit, lung, seven days
Experimental: Herein, New Zealand albino rabbits (New Zealand White Rabbits) with an initial average weight of approximately 3 kg were used. The rabbits were fed ad libitum and were monitored daily to check that signs of toxicity had not appeared. […] This mixture was administered as an aerosol to the airways of a group of 3 of said rabbits (Group 5) in a dose of 0.05 mg/kg body weight per day, to another group of three rabbits (Group 6) in a dose of 0.1 mg/kg body weight per day, to another group of three rabbits (group 7) in a dose of 0.2 mg/kg body weight per day and to another group of three rabbits (Group 8) in a dose of 0.4 mg/kg body weight per day. […] After seven days of treatment all animals were euthanized and necropsied. […] Samples were taken at the peripheral level of the lung parenchyma, just below the pleural surface. Tissue samples were also taken from the nasal cavity, pharynx, larynx and bronchi. […] The average is the arithmetic average calculated for each row or column of each table. The SD is the standard deviation, calculated for each row or column of each table.

With `C[C@@H](OC1OCCN(Cc2nc(=O)[nH][nH]2)C1c1ccc(F)cc1)c1cc(C(F)(F)F)cc(C(F)(F)F)c1` (stereo in doubt) [Aprepitant, 5-([(2R,3S)-2-((R)-1-[3,5-bis(trifluoromethyl)phenyl]ethoxy)-3-(4-fluorophenyl)morpholino]methyl)-1H-1,2,4-triazol-3(2H)-one] as the molecule, how does the concentration at 7 days (left superior lobe, inhaled, 0.4 mg/kg/day, Lung concentration of aprepitant LSPI, Average ± SD of cases, Group 8, inhalation (aerosol, olive oil) 0.4 mg/kg per day) read?
Its concentration at 7 days is 10000 ng/g.

And the concentration at 7 days (left superior lobe, po, 10 mg/kg/day, Lung concentration of aprepitant LSPI (left superior lobe), Group 1, oral 10 mg/kg per day, individual cases)?
Its concentration at 7 days is 500 ng/g.

What about the concentration at 7 days (left superior lobe, po, 10 mg/kg/day, Lung concentration of aprepitant LSPI, Average ± SD of cases, Group 1, oral 10 mg/kg per day) of the same molecule?
Its concentration at 7 days is 600 ng/g.

And the concentration at 7 days (left superior lobe, po, 40 mg/kg/day, Lung concentration of aprepitant LSPI (left superior lobe), Group 2, oral 40 mg/kg per day, individual cases)?
Its concentration at 7 days is 5300 ng/g.

What about the concentration at 7 days (left superior lobe, po, 40 mg/kg/day, Lung concentration of aprepitant LSPI, Average ± SD of cases, Group 2, oral 40 mg/kg per day) of the same molecule?
The concentration at 7 days was 4300 ng/g.

And the concentration at 7 days (left superior lobe, po, 80 mg/kg/day, Lung concentration of aprepitant LSPI (left superior lobe), Group 3, oral 80 mg/kg per day, individual cases)?
Its concentration at 7 days is 3900 ng/g.

What about the concentration at 7 days (left superior lobe, po, 80 mg/kg/day, Lung concentration of aprepitant LSPI, Average ± SD of cases, Group 3, oral 80 mg/kg per day) of the same molecule?
Its concentration at 7 days is 4700 ng/g.

And the concentration at 7 days (right inferior lobe, inhaled, 0.4 mg/kg/day, Lung concentration of aprepitant LIPD (right inferior lobe), Group 8, inhalation (aerosol, olive oil) 0.4 mg/kg per day, individual cases)?
Its concentration at 7 days is 9900 ng/g.

What about the concentration at 7 days (right inferior lobe, inhaled, 0.4 mg/kg/day, Lung concentration of aprepitant LIPD, Average ± SD of cases, Group 8, inhalation (aerosol, olive oil) 0.4 mg/kg per day) of the same molecule?
The concentration at 7 days was 10100 ng/g.

What about the concentration at 7 days (right inferior lobe, po, 10 mg/kg/day, Lung concentration of aprepitant LIPD (right inferior lobe), Group 1, oral 10 mg/kg per day, individual cases) of the same molecule?
The concentration at 7 days was 600 ng/g.

And the concentration at 7 days (right inferior lobe, po, 10 mg/kg/day, Lung concentration of aprepitant LIPD, Average ± SD of cases, Group 1, oral 10 mg/kg per day)?
The concentration at 7 days was 800 ng/g.

And the concentration at 7 days (right inferior lobe, po, 40 mg/kg/day, Lung concentration of aprepitant LIPD (right inferior lobe), Group 2, oral 40 mg/kg per day, individual cases)?
Its concentration at 7 days is 3300 ng/g.

What about the concentration at 7 days (right inferior lobe, po, 40 mg/kg/day, Lung concentration of aprepitant LIPD, Average ± SD of cases, Group 2, oral 40 mg/kg per day) of the same molecule?
Its concentration at 7 days is 3500 ng/g.

And the concentration at 7 days (right inferior lobe, po, 80 mg/kg/day, Lung concentration of aprepitant LIPD (right inferior lobe), Group 3, oral 80 mg/kg per day, individual cases)?
The concentration at 7 days was 5100 ng/g.

And the concentration at 7 days (right inferior lobe, po, 80 mg/kg/day, Lung concentration of aprepitant LIPD, Average ± SD of cases, Group 3, oral 80 mg/kg per day)?
The concentration at 7 days was 5500 ng/g.

What about the concentration at 7 days (right middle lobe, inhaled, 0.4 mg/kg/day, Lung concentration of aprepitant LMPD (right middle lobe), Group 8, inhalation (aerosol, olive oil) 0.4 mg/kg per day, individual cases) of the same molecule?
The concentration at 7 days was 10000 ng/g.

What about the concentration at 7 days (right middle lobe, inhaled, 0.4 mg/kg/day, Lung concentration of aprepitant LMPD, Average ± SD of cases, Group 8, inhalation (aerosol, olive oil) 0.4 mg/kg per day) of the same molecule?
Its concentration at 7 days is 10000 ng/g.

What about the concentration at 7 days (right middle lobe, po, 10 mg/kg/day, Lung concentration of aprepitant LMPD (right middle lobe), Group 1, oral 10 mg/kg per day, individual cases) of the same molecule?
The concentration at 7 days was 1100 ng/g.

What about the concentration at 7 days (right middle lobe, po, 10 mg/kg/day, Lung concentration of aprepitant LMPD, Average ± SD of cases, Group 1, oral 10 mg/kg per day) of the same molecule?
The concentration at 7 days was 1300 ng/g.

What about the concentration at 7 days (right middle lobe, po, 40 mg/kg/day, Lung concentration of aprepitant LMPD (right middle lobe), Group 2, oral 40 mg/kg per day, individual cases) of the same molecule?
Its concentration at 7 days is 4200 ng/g.

What about the concentration at 7 days (right middle lobe, po, 40 mg/kg/day, Lung concentration of aprepitant LMPD, Average ± SD of cases, Group 2, oral 40 mg/kg per day) of the same molecule?
Its concentration at 7 days is 4000 ng/g.

And the concentration at 7 days (right middle lobe, po, 80 mg/kg/day, Lung concentration of aprepitant LMPD (right middle lobe), Group 3, oral 80 mg/kg per day, individual cases)?
Its concentration at 7 days is 4800 ng/g.

And the concentration at 7 days (right middle lobe, po, 80 mg/kg/day, Lung concentration of aprepitant LMPD, Average ± SD of cases, Group 3, oral 80 mg/kg per day)?
Its concentration at 7 days is 5200 ng/g.

And the concentration at 7 days (right middle lobe, po, 100 mg/kg/day, Lung concentration of aprepitant LMPD (right middle lobe), Group 4, oral 100 mg/kg per day, individual cases)?
The concentration at 7 days was 5800 ng/g.

What about the concentration at 7 days (right superior lobe, inhaled, 0.4 mg/kg/day, Lung concentration of aprepitant LSPD (right superior lobe), Group 8, inhalation (aerosol, olive oil) 0.4 mg/kg per day, individual cases) of the same molecule?
Its concentration at 7 days is 10100 ng/g.

And the concentration at 7 days (right superior lobe, inhaled, 0.4 mg/kg/day, Lung concentration of aprepitant LSPD, Average ± SD of cases, Group 8, inhalation (aerosol, olive oil) 0.4 mg/kg per day)?
Its concentration at 7 days is 9900 ng/g.

And the concentration at 7 days (right superior lobe, po, 10 mg/kg/day, Lung concentration of aprepitant LSPD, Average ± SD of cases, Group 1, oral 10 mg/kg per day)?
The concentration at 7 days was 900 ng/g.

What about the concentration at 7 days (right superior lobe, po, 40 mg/kg/day, Lung concentration of aprepitant LSPD (right superior lobe), Group 2, oral 40 mg/kg per day, individual cases) of the same molecule?
The concentration at 7 days was 3200 ng/g.

What about the concentration at 7 days (right superior lobe, po, 40 mg/kg/day, Lung concentration of aprepitant LSPD, Average ± SD of cases, Group 2, oral 40 mg/kg per day) of the same molecule?
Its concentration at 7 days is 3500 ng/g.

And the concentration at 7 days (right superior lobe, po, 80 mg/kg/day, Lung concentration of aprepitant LSPD (right superior lobe), Group 3, oral 80 mg/kg per day, individual cases)?
The concentration at 7 days was 4900 ng/g.

And the concentration at 7 days (right superior lobe, po, 80 mg/kg/day, Lung concentration of aprepitant LSPD, Average ± SD of cases, Group 3, oral 80 mg/kg per day)?
The concentration at 7 days was 4100 ng/g.

And the concentration at 7 days (right superior lobe, po, 100 mg/kg/day, Lung concentration of aprepitant LSPD (right superior lobe), Group 4, oral 100 mg/kg per day, individual cases)?
Its concentration at 7 days is 5100 ng/g.

And the “relationship between dose and concentration in the lungs” value (inhalation, 0.05 to 0.4 mg/kg per day)?
The value was “proportional to the dose administered by inhalation”.
